Among the data in US10793927B2, “Separation of lignin and sugars from biomass pre-treatment liquors” (Stichting Energieonderzoek Centrum Nederland, priority 2015, dated 2020) are xylose not dissolved values, retold here.

The data set in a line: Solubility test of xylose in solvent systems suitable as organosolv treatment liquid. In kind it is physicochemical. To be noted: 20° C., stirred 24 h, based on total weight of the xylose added. Here is the method: The solubility of xylose (>99% pure, VWR) in different solvent systems, that are suitable to be used as treatment liquid during organosolv, is tested. Xylose was used as representative of all monomeric sugars, as it is the most abundant carbohydrate found in hemicellulose present in hardwoods and herbaceous biomass and thus in corresponding organosolv liquors. The indicated amount of xylose was added to each solvent system at 20° C. and the suspension was mechanically stirred for 24 h. Hereafter, the saturated solution containing remaining xylose was allowed to settle for 3 h and the liquid was removed. The residue was dried and the amount of undissolved xylose was determined.

For the molecule `O=C[C@H](O)[C@@H](O)[C@H](O)CO` [xylose], the xylose not dissolved is, setting by setting: (acetone (100%), 2.7 wt % xylose added) 99.1 wt %; (ethanol (100%), 2.5 wt % xylose added) 82.2 wt %; (water/acetone 1.9/98.1 (w/w), 2.7 wt % xylose added) 99.1 wt %; (water/acetone 4.9/95.1 (w/w), 2.7 wt % xylose added) 93.0 wt %; (water/acetone 8.4/91.6 (w/w), 2.0 wt % xylose added) 79.1 wt %; (water/acetone 9.9/90.1 (w/w), 2.3 wt % xylose added) 80.2 wt %. For the same molecule, the xylose not dissolved (water/ethanol 4.3/95.7 (w/w), 2.2 wt % xylose added) is on record as 49.7 wt %; the xylose not dissolved (water/ethanol 4.7/95.3 (w/w), 2.3 wt % xylose added) is 46.2 wt %; the xylose not dissolved (water/ethanol 7.8/92.2 (w/w), 2.3 wt % xylose added) amounted to 16.6 wt %; the xylose not dissolved (water/ethanol 9.7/90.3 (w/w), 2.3 wt % xylose added) is 0.0 wt %.
